Assay results: patent US11098010B2 (priority 2017, dated 2021)
Structures can show the parent of a compound that is named as a salt.

tested on: HBV rcDNA in HepDE19 cells; test: HepDE19 assay with bDNA quantitation of HBV rcDNA; assay type: cell-based, hepatitis B virus (HBV); details: HepDE19 cells, inhibition of rcDNA formation, 7 day incubation, top concentration 25 μM; read-out: DE-19 bDNA EC50

| Structure (SMILES) | EC50 [µM] |
| --- | --- |
| COC(=O)NC1c2cccc(C(=O)Nc3ccc(F)c(F)c3)c2CC1O (stereo not shown) [Compound 52, O-methyl, N-(4-((3,4-difluorophenyl)carbamoyl)-2-hydroxy-2,3-dihydro-1H-inden-1-yl) carbamate] | 19 |
| O=C(N[C@@H]1c2cccc(C(=O)Nc3ccc(F)c(F)c3)c2C[C@H]1O)OCc1ccccn1 [Compound 60, O-pyridin-2-ylmethyl, N-((1R,2R)-4-((3,4-difluorophenyl)carbamoyl)-2-hydroxy-2,3-dihydro-1H-inden-1-yl) carbamate] | > 25 |
| O=C(NC1CSc2c(C(=O)Nc3ccc(F)c(F)c3)ccc(F)c21)OCc1ccccn1 (stereo not shown) [Compound 63, O-Pyridin-2-ylmethyl, N-(7-((3,4-difluorophenyl)carbamoyl)-4-fluoro-2,3-dihydrobenzo[b]thiophen-3-yl) carbamate] | > 25 |
| O=C(NC1CSc2c(C(=O)Nc3ccc(F)c(F)c3)ccc(F)c21)OCc1ccccn1 (stereo not shown) [Compound 64, O-Pyridin-2-ylmethyl, N-(7-((3,4-difluorophenyl)carbamoyl)-4-fluoro-2,3-dihydrobenzo[b]thiophen-3-yl) carbamate] | 0.84 |
| O=C(NC1CSc2c(C(=O)Nc3ccc(F)c(Cl)c3)ccc(F)c21)OCc1ccccn1 (stereo not shown) [Compound 65, O-Pyridin-2-ylmethyl, N-(7-((3-chloro-4-fluorophenyl)carbamoyl)-4-fluoro-2,3-dihydrobenzo[b]thiophen-3-yl) carbamate] | > 25 |
| O=C(NC1CSc2c(C(=O)Nc3ccc(F)c(Cl)c3)ccc(F)c21)OCc1ccccn1 (stereo not shown) [Compound 66, O-Pyridin-2-ylmethyl, N-(7-((3-chloro-4-fluorophenyl)carbamoyl)-4-fluoro-2,3-dihydrobenzo[b]thiophen-3-yl) carbamate] | 0.44 |
| O=C(N[C@H]1CCc2c(C(=O)Nc3ccc(F)c(Cl)c3)ccc(F)c21)OCCF [Compound 76, O-2-Fluoroethyl, N—(S)-(4-((3-chloro-4-fluorophenyl)carbamoyl)-7-fluoro-2,3-dihydro-1H-inden-1-yl) carbamate] | 0.11 |

same assay, conditions: Hepatitis B virus, HepDE19, 168 h, HepDE19 cells, inhibition of rcDNA formation, 7 day incubation, top concentration 25 μM; read-out: DE-19 bDNA EC50

| Structure (SMILES) | EC50 [µM] |
| --- | --- |
| O=C(N[C@@H]1c2cccc(C(=O)Nc3ccc(F)c(Cl)c3)c2C[C@H]1O)OCc1ccccn1 [Compound 51, O-Pyridin-2-ylmethyl, N-((1R,2R)-4-((3-chloro-4-fluorophenyl)carbamoyl)-2-hydroxy-2,3-dihydro-1H-inden-1-yl) carbamate] | 0.87 |
| CNC(=O)NC1c2cccc(C(=O)Nc3ccc(F)c(F)c3)c2CC1O (stereo not shown) [Compound 53, N-(3,4-difluorophenyl)-2-hydroxy-1-(3-methylureido)-2,3-dihydro-1H-indene-4-carboxamide] | > 25 |
| O=C(N[C@H]1CCc2c(C(=O)Nc3ccc(F)c(Cl)c3)ccc(F)c21)OCc1cccc[n+]1[O-] [Compound 67, (S)-2-((((4-((3-Chloro-4-fluorophenyl)carbamoyl)-7-fluoro-2,3-dihydro-1H-inden-1-yl)carbamoyl)oxy)methyl)pyridine 1-oxide] | 0.31 |
| O=C(N[C@H]1CCc2c(C(=O)Nc3ccc(F)c(Cl)c3)ccc(F)c21)OCCC(F)(F)F [Compound 70, O-3,3,3-Trifluoropropyl, N—(S)-(4-((3-chloro-4-fluorophenyl)carbamoyl)-7-fluoro-2,3-dihydro-1H-inden-1-yl) carbamate] | 0.29 |
| Cn1ccc(COC(=O)N[C@H]2CCc3c(C(=O)Nc4ccc(F)c(Cl)c4)ccc(F)c32)n1 [Compound 71, O-(1-Methyl-1H-pyrazol-3-yl)methyl, N—(S)-(4-((3-chloro-4-fluorophenyl)carbamoyl)-7-fluoro-2,3-dihydro-1H-inden-1-yl) carbamate] | 0.06 |
| O=C1C[C@@H](OC(=O)N[C@H]2CCc3c(C(=O)Nc4ccc(F)c(Cl)c4)ccc(F)c32)CN1 [Compound 72, O—(R)-5-Oxopyrrolidin-3-yl, N—((S)-4-((3-chloro-4-fluorophenyl)carbamoyl)-7-fluoro-2,3-dihydro-1H-inden-1-yl) carbamate] | 0.24 |
| Cc1cccc(COC(=O)N[C@H]2CCc3c(C(=O)Nc4ccc(F)c(Cl)c4)ccc(F)c32)n1 [Compound 73, O-(6-Methylpyridin-2-yl)methyl, N—(S)-(4-((3-chloro-4-fluorophenyl)carbamoyl)-7-fluoro-2,3-dihydro-1H-inden-1-yl) carbamate] | 0.25 |
| O=C(NCc1ccccn1)O[C@H]1CCc2c(C(=O)Nc3ccc(F)c(Cl)c3)ccc(F)c21 [Compound 74, N—(S)-4-((3-Chloro-4-fluorophenyl)carbamoyl)-7-fluoro-2,3-dihydro-1H-inden-1-yl, O-(pyridin-2-ylmethyl) carbamate] | 1.6 |
| COCC(=O)N[C@H]1CCc2c(C(=O)Nc3ccc(F)c(Cl)c3)ccc(F)c21 [Compound 75, (S)—N-(3-Chloro-4-fluorophenyl)-7-fluoro-1-(2-methoxyacetamido)-2,3-dihydro-1H-indene-4-carboxamide] | 1.4 |
| CC(=O)N[C@H]1CCc2c(C(=O)Nc3ccc(F)c(Cl)c3)ccc(F)c21 [Compound 77, (S)-1-Acetamido-N-(3-chloro-4-fluorophenyl)-7-fluoro-2,3-dihydro-1H-indene-4-carboxamide] | 0.2 |

same assay, conditions: Hepatitis B virus, HepDE19, 168 h, read-out: DE-19 bDNA EC50 (μM), HepDE19 cells, inhibition of rcDNA formation, 7 day incubation, top concentration 25 μM

| Structure (SMILES) | EC50 [µM] |
| --- | --- |
| COc1cnc(N[C@H]2CCc3c(C(=O)Nc4ccc(F)c(Cl)c4)ccc(F)c32)nc1 [Compound 49, (S)—N-(3-Chloro-4-fluorophenyl)-7-fluoro-1-((5-methoxypyrimidin-2-yl)amino)-2,3-dihydro-1H-indene-4-carboxamide] | 0.17 |
| O=C(Nc1ccc(F)c(Cl)c1)c1ccc(F)c2c1CC[C@@H]2Nc1nccc(-c2ccccn2)n1 [Compound 50, (S)—N-(3-Chloro-4-fluorophenyl)-7-fluoro-1-((4-(pyridin-2-yl)pyrimidin-2-yl)amino)-2,3-dihydro-1H-indene-4-carboxamide] | 1 |
| CC(C)(C)OC(=O)N1CC(F)(F)CC1COC(=O)N[C@H]1CCc2c(C(=O)Nc3ccc(F)c(Cl)c3)ccc(F)c21 (stereo partly drawn) [Compound 54, tert-Butyl 2-(((((S)-4-((3-chloro-4-fluorophenyl)carbamoyl)-7-fluoro-2,3-dihydro-1H-inden-1-yl)carbamoyl)oxy)methyl)-4,4-difluoropyrrolidine-1-carboxylate] | 0.99 |
| O=C(N[C@H]1CCc2c(C(=O)Nc3ccc(F)c(Cl)c3)ccc(F)c21)OCC1CC(F)(F)CN1 (stereo partly drawn) [Compound 56, O-(4,4-Difluoropyrrolidin-2-yl)methyl, N—((S)-4-((3-chloro-4-fluorophenyl)carbamoyl)-7-fluoro-2,3-dihydro-1H-inden-1-yl) carbamate Hydrochloride] | 0.5 |
| CC(=O)N1CC(F)(F)CC1COC(=O)N[C@H]1CCc2c(C(=O)Nc3ccc(F)c(Cl)c3)ccc(F)c21 (stereo partly drawn) [Compound 61, O-(1-Acetyl-4,4-difluoropyrrolidin-2-yl)methyl, N—((S)-4-((3-chloro-4-fluorophenyl)carbamoyl)-7-fluoro-2,3-dihydro-1H-inden-1-yl) carbamate] | 0.4 |
| O=C(N[C@H]1CCc2c(C(=O)Nc3ccc(F)c(Cl)c3)ccc(F)c21)OCC1CCN(CC(F)(F)F)CC1 [Compound 62, O-(1-(2,2,2-Trifluoroethyl)piperidin-4-yl)methyl, N—(S)-(4-((3-chloro-4-fluorophenyl)carbamoyl)-7-fluoro-2,3-dihydro-1H-inden-1-yl) carbamate] | 1.8 |
| C[C@H](OC(=O)N[C@H]1CCc2c(C(=O)Nc3ccc(F)c(Cl)c3)ccc(F)c21)c1ccccn1 [Compound 68, O—(S)-1-(Pyridin-2-yl)ethyl, N—((S)-4-((3-chloro-4-fluorophenyl)carbamoyl)-7-fluoro-2,3-dihydro-1H-inden-1-yl) carbamate] | 0.39 |
| O=C(N[C@H]1CCc2c(C(=O)Nc3ccc(F)c(Cl)c3)ccc(F)c21)OC[C@@H]1CCCN1 [Compound 69, O—(S)-Pyrrolidin-2-ylmethyl, N—((S)-4-((3-chloro-4-fluorophenyl)carbamoyl)-7-fluoro-2,3-dihydro-1H-inden-1-yl) carbamate Hydrochloride] | 5.1 |
| O=C(N[C@H]1CCc2c(C(=O)Nc3ccc(F)c(Cl)c3)ccc(F)c21)OCc1cnccn1 [Compound 78, O-Pyrazin-2-ylmethyl, N—(S)-(4-((3-chloro-4-fluorophenyl)carbamoyl)-7-fluoro-2,3-dihydro-1H-inden-1-yl) carbamate] | 0.09 |
| O=C(N[C@H]1CCc2c(C(=O)Nc3ccc(F)c(Cl)c3)ccc(F)c21)OCc1ncccn1 [Compound 79, O-Pyrimidin-2-ylmethyl, N—(S)-(4-((3-chloro-4-fluorophenyl)carbamoyl)-7-fluoro-2,3-dihydro-1H-inden-1-yl) carbamate] | 0.12 |

same assay, conditions: read-out: DE-19 bDNA EC50; HepDE19 cells, inhibition of rcDNA formation, 7 day incubation, top concentration 25 μM

| Structure (SMILES) | EC50 [µM] |
| --- | --- |
| COC(=O)NC1CSc2c(C(=O)Nc3ccc(F)c(F)c3)ccc(F)c21 (stereo not shown) [Compound 55, O-Methyl, N-(7-((3,4-difluorophenyl)carbamoyl)-4-fluoro-2,3-dihydrobenzo[b]thiophen-3-yl) carbamate] | 1.2 |
| COC(=O)NC1CSc2c(C(=O)Nc3ccc(F)c(F)c3)ccc(F)c21 (stereo not shown) [Compound 57, O-Methyl, N-(7-((3,4-difluorophenyl)carbamoyl)-4-fluoro-2,3-dihydrobenzo[b]thiophen-3-yl) carbamate] | > 25 |
| COC(=O)NC1CSc2c(C(=O)Nc3ccc(F)c(Cl)c3)ccc(F)c21 (stereo not shown) [Compound 58, O-Methyl, N-(7-((3-chloro-4-fluorophenyl)carbamoyl)-4-fluoro-2,3-dihydrobenzo[b]thiophen-3-yl) carbamate] | 0.79 |
| COC(=O)NC1CSc2c(C(=O)Nc3ccc(F)c(Cl)c3)ccc(F)c21 (stereo not shown) [Compound 59, O-Methyl, N-(7-((3-chloro-4-fluorophenyl)carbamoyl)-4-fluoro-2,3-dihydrobenzo[b]thiophen-3-yl) carbamate] | 12 |
